Laboratory results from ChEMBL document CHEMBL1135960 (Bioorg Med Chem Lett, 2002).
Active and inactive are the calls of the source. No cut-off for these calls is given here.

Experiments:
[1] = target: T1, Serotonin 3 (5-HT3) receptor (Homo sapiens) (UniProt P46098+A5X5Y0+O95264+Q70Z44+Q8WXA8); test: Intrinsic activity towards 5-hydroxytryptamine 3 receptor was determined by Benzold-Jarisch reflex (peripheral assay); ANT: antagonist; format: functional; settings: filed as antagonist
[2] = target: Serotonin 3 (5-HT3) receptor; test: Binding affinity towards 5-hydroxytryptamine 3 receptor; format: protein-complex assay
[3] = target: T1, Serotonin 3 (5-HT3) receptor (Homo sapiens); test: Intrinsic activity towards CNS 5-hydroxytryptamine 3 receptor was determined; A: agonist; format: functional; settings: filed as agonist
[4] = target: T1, Serotonin 3 (5-HT3) receptor (Homo sapiens); test: Intrinsic activity towards 5-hydroxytryptamine 3 receptor was determined by Benzold-Jarisch reflex (peripheral assay); A: agonist; format: functional; settings: filed as agonist
[5] = target: T1, Serotonin 3 (5-HT3) receptor (Homo sapiens); test: Intrinsic activity towards 5-hydroxytryptamine 3 receptor was determined by Benzold-Jarisch reflex (peripheral assay); PA: Partial agonist; format: functional; settings: filed as partial agonist
[6] = target: T1, Serotonin 3 (5-HT3) receptor (Homo sapiens); test: Intrinsic activity towards CNS 5-hydroxytryptamine 3 receptor was determined; ANT: Antagonist; format: functional; settings: filed as antagonist
[7] = target: T1, Serotonin 3 (5-HT3) receptor (Homo sapiens); test: Intrinsic activity towards CNS 5-hydroxytryptamine 3 receptor was determined; NA: not active; format: protein-complex assay
[8] = tested on: Serotonin 3 (5-HT3) receptor; test: Binding affinity of compound towards 5-hydroxytryptamine 3 receptor; NA: not active; format: protein-complex assay

O=[N+]([O-])c1ccc2nc(N3CCNCC3)ccc2c1 [6-NITROQUIPAZINE]
Intrinsic activity [1]: Antagonist
Ki [2]: 58 nM

CN1CCN(c2nc3ccccc3n3cccc23)CC1
Intrinsic activity [1]: Antagonist
Intrinsic activity [3]: Agonist
Ki [2]: 0.23 nM

N=C(N)Nc1cccc(Cl)c1
Intrinsic activity [4]: Agonist

c1ccc2nc(N3CCNCC3)ccc2c1
Intrinsic activity [5]: Partial agonist
Intrinsic activity [3]: Agonist

Clc1ccc2ccc(N3CCNCC3)nc2c1
Intrinsic activity [1]: Antagonist
Ki [2]: 38 nM

CN1CCN(c2nc3ccccc3c3c2CCCC3)CC1
Ki [2]: 0.23 nM

N=C(N)Nc1ccc2ccccc2c1
Intrinsic activity [4]: Agonist

CN1CCN(c2nc3ccccc3c3c2CC2CCC3C2)CC1 (stereo not drawn)
Intrinsic activity [6]: Antagonist
Ki [2]: 0.83 nM

CN1CCN(c2cc3cc(F)ccc3n3cccc23)CC1
Intrinsic activity [1]: Antagonist
Intrinsic activity [3]: Agonist
Ki [2]: 0.51 nM

NC1CCN(c2cccc(Cl)n2)CC1
Intrinsic activity [3]: Agonist
Ki [2]: 103 nM

N=C(N)NC(=N)Nc1cccc(Cl)c1
Intrinsic activity [4]: Agonist
Intrinsic activity [3]: Agonist

Cc1[nH]c2ccc(O)cc2c1CCN
Intrinsic activity [4]: Agonist
Intrinsic activity [3]: Agonist

CN1CCN(c2nc3ccccc3c3ccccc23)CC1
Intrinsic activity [3]: Agonist
Ki [2]: 1.9 nM

CN1CCN(c2cc3cc(C(F)(F)F)ccc3n3cccc23)CC1
Intrinsic activity [1]: Antagonist
Intrinsic activity [7]: inactive
Ki [8]: Not Active

NCCc1c[nH]c2ccc(O)cc12
Intrinsic activity [4]: Agonist
Intrinsic activity [3]: Agonist

N=C(N)NC(=N)Nc1ccccc1
Intrinsic activity [4]: Agonist
Intrinsic activity [3]: Agonist

N=C(N)NC(=N)Nc1ccc2ccccc2c1
Intrinsic activity [4]: Agonist
